32 molecules from ChEMBL document CHEMBL5625182, “Synthesis and antibacterial activities of baulamycin A inspired derivatives” (Eur J Med Chem, 2023) can be followed below.

≈ marks a conversion by molar mass, not a printed value. Some results are limits rather than exact numbers.

Experiment [1] relates to Staphylococcus aureus. The experiment in a line: Antibacterial activity against […] Staphylococcus aureus ATCC25923 assessed as inhibition in bacterial growth incubated for 18 hrs by microdilution method. In kind it is functional.
Experiment [2] concerns Staphylococcus aureus. Briefly: Antibacterial activity against methicillin resistant Staphylococcus aureus CCARM3167 assessed as inhibition in bacterial growth incubated for 18 hrs by microdilution method. In kind it is functional. (In general: Broth dilution looks for growth in wells or tubes with falling amounts of substance.)
Experiment [3] has as its target T1, L-2,3-diaminopropanoate--citrate ligase (Staphylococcus aureus (strain NCTC 8325 / PS 47)) (UniProt Q2G1M9).
T1 sequence (whole entry): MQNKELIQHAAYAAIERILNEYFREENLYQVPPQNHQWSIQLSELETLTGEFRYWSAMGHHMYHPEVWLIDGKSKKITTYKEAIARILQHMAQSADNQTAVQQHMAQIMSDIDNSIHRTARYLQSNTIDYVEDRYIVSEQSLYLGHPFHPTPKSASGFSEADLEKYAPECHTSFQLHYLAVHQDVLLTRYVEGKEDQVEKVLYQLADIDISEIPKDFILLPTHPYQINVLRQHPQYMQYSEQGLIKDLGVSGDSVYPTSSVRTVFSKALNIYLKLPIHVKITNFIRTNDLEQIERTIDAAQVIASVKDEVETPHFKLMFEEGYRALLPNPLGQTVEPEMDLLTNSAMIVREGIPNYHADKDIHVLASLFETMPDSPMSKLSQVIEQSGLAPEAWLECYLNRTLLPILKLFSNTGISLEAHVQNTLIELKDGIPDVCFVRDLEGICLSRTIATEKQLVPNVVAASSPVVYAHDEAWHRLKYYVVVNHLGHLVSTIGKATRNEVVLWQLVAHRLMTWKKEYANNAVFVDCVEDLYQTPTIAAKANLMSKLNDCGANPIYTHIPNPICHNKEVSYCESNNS
Briefly: Inhibition of Staphylococcus aureus SbnE at 50 uM incubated for 1 hr by malachite green staining based microplate reader analysis relative to control.

For experiment [4], the target named is T2, L-2,3-diaminopropanoate--citrate ligase (Staphylococcus aureus (strain NCTC 8325 / PS 47), UniProt Q2G1M9).
T2 sequence (Q2G1M9 whole entry): T1 sequence (whole entry)
Briefly: Inhibition of Staphylococcus aureus SbnE incubated for 1 hr by malachite green staining based microplate reader analysis.

Broadly, the MIC is the smallest concentration in the dilution series that meets the test's criterion for growth inhibition. For orientation: inhibition means the change of the read-out against control, counted positive when it falls. Lower therefore signals a response near the control. As usually defined, the IC50 is the concentration that gives 50% inhibition.

`CC(C)C[C@H]([C@H](O)CCNc1ccccn1)[C@@H](O)c1cc(O)cc(O)c1`: the MIC in the experiment with Staphylococcus aureus [1] and in the experiment with Staphylococcus aureus [2] was > 256 µg/mL throughout. The inhibition in experiment [3] came out at 36.4%.

For `CC(C)C[C@@H]([C@H](O)C[C@H](O)CCCCCCCCO)[C@@H](O)c1cc(O)cc(O)c1`, the MIC in the experiment with Staphylococcus aureus [1] and in the experiment with Staphylococcus aureus [2] was > 256 µg/mL each time. The molecule also came in with an inhibition in experiment [3] of 38.4%.

In experiment [4], `Cc1ccc(NCC[C@H](O)[C@@H](CC(C)C)[C@@H](O)c2cc(O)cc(O)c2)c(Cl)c1` returned an IC50 of 18.9 µM. For the same molecule, the MIC in the experiment on Staphylococcus aureus [1] and with Staphylococcus aureus [2] was 64 µg/mL (≈ 157 µM) each time. In experiment [3], this molecule displayed an inhibition of 54.8%.

Regarding `CC(C)C[C@@H]([C@H](O)CCNCc1ccccc1)[C@@H](O)c1cc(O)cc(O)c1`, the MIC in the experiment with Staphylococcus aureus [1] and in the experiment on Staphylococcus aureus [2] was > 256 µg/mL in each case. For the same molecule, in experiment [3], the inhibition was determined as 5.63%.

For `CC(C)C[C@H]([C@H](O)CCNCc1cccc([N+](=O)[O-])c1)[C@@H](O)c1cc(O)cc(O)c1`, the IC50 in experiment [4] was determined as 92.5 µM. Besides, the MIC in the experiment with Staphylococcus aureus [1] and in the experiment with Staphylococcus aureus [2] was > 256 µg/mL in each case. Also, the inhibition in experiment [3] stood at 50.8%.

`CC(C)C[C@H]([C@H](O)CCNc1ccccc1)[C@@H](O)c1cc(O)cc(O)c1` yielded an IC50 in experiment [4] of 18.2 µM. The MIC in the experiment with Staphylococcus aureus [1] came out at 4 µg/mL (≈ 11.1 µM); in the experiment on Staphylococcus aureus [2], 8 µg/mL (≈ 22.3 µM). The molecule further yielded an inhibition in experiment [3] of 75.1%.

With `CCC[C@@H](O)[C@@H](CC(C)C)[C@@H](O)c1cc(O)cc(O)c1`, the MIC in the experiment with Staphylococcus aureus [1] and in the experiment with Staphylococcus aureus [2] was > 256 µg/mL each time. In experiment [3], this molecule registered an inhibition of 25.6%.

Consider `C[C@@H](COCc1ccccc1)C[C@H](C)C[C@H](C)C#CC(O)c1cc(O)cc(O)c1` (some centres not stated), for which the MIC is 2 µg/mL (≈ 5.04 µM) in the experiment with Staphylococcus aureus [1] and 4 µg/mL (≈ 10.1 µM) in the experiment on Staphylococcus aureus [2]. In experiment [3], this molecule showed an inhibition of 34.8%.

With `CCN(CC[C@@H](O)[C@@H](CC(C)C)[C@@H](O)c1cc(O)cc(O)c1)Cc1ccccc1`, the MIC in the experiment with Staphylococcus aureus [1] and in the experiment on Staphylococcus aureus [2] was 16 µg/mL (≈ 39.8 µM) each time. This molecule also came in with an inhibition in experiment [3] of 5.19%.

`CC(C)C[C@@H]([C@H](O)C[C@H](O)C#C[C@@H](C)C[C@H](C)C[C@@H](C)COCc1ccccc1)[C@@H](O)c1cc(O)cc(O)c1` gave an IC50 in experiment [4] of 11.8 µM. Moreover, the MIC in the experiment with Staphylococcus aureus [1] and in the experiment on Staphylococcus aureus [2] was 64 µg/mL (≈ 118 µM) each time. Also, in experiment [3], the inhibition turned out to be 76.8%.

Regarding `CC(C)C[C@H]([C@H](O)CCNc1cc(Cl)c(F)cc1[N+](=O)[O-])[C@@H](O)c1cc(O)cc(O)c1`, the MIC in the experiment on Staphylococcus aureus [1] stood at 128 µg/mL (≈ 280 µM); with Staphylococcus aureus [2], 256 µg/mL (≈ 560 µM). In experiment [3], this molecule came in with an inhibition of 6.49%.

`CC(C)C[C@@H]([C@H](O)CCCC[C@@H](C)C[C@H](C)C[C@@H](C)CO)[C@@H](O)c1cc(O)cc(O)c1`: in experiment [4], it took 10.5 µM to reach half-maximal inhibition (IC50). The MIC in the experiment with Staphylococcus aureus [1] and in the experiment on Staphylococcus aureus [2] was > 256 µg/mL in each case. In experiment [3], this molecule gave an inhibition of 79.4%.

For `CC(C)C[C@@H]([C@H](O)CCCCCCCCCCO)[C@@H](O)c1cc(O)cc(O)c1`, the MIC with Staphylococcus aureus [1] and in the experiment on Staphylococcus aureus [2] was > 256 µg/mL in each case. This molecule also registered an inhibition in experiment [3] of 19.8%.

On to `CC(C)C[C@H]([C@H](O)CCNc1c(Cl)cccc1Cl)[C@@H](O)c1cc(O)cc(O)c1`, for which the MIC worked out at 256 µg/mL (≈ 598 µM) in the experiment on Staphylococcus aureus [1] and 128 µg/mL (≈ 299 µM) in the experiment on Staphylococcus aureus [2]. This molecule registered an inhibition in experiment [3] of 26.8%.

`CC(C)C[C@H]([C@H](O)CCNc1ccn(C)n1)[C@@H](O)c1cc(O)cc(O)c1`: the MIC with Staphylococcus aureus [1] and in the experiment with Staphylococcus aureus [2] was 128 µg/mL (≈ 352 µM) each time. In experiment [3], this molecule yielded an inhibition of 48.2%.

Regarding `CC(C)C[C@H]([C@H](O)CC(O)C#C[C@@H](C)C[C@@H](C)C[C@@H](C)CO)[C@@H](O)c1cc(O)cc(O)c1` (some centres not stated), the IC50 in experiment [4] was found to be 6.76 µM. The MIC in the experiment on Staphylococcus aureus [1] and in the experiment with Staphylococcus aureus [2] was 64 µg/mL (≈ 142 µM) throughout. This molecule registered an inhibition in experiment [3] of 74.7%.

In the case of `CC(C)C[C@H]([C@H](O)CCNc1cccc([N+](=O)[O-])c1)[C@@H](O)c1cc(O)cc(O)c1`, the MIC with Staphylococcus aureus [1] was found to be 64 µg/mL (≈ 158 µM); with Staphylococcus aureus [2] it was 256 µg/mL (≈ 633 µM). In addition, the inhibition in experiment [3] is 5.19%.

Regarding `CC(C)C[C@@H]([C@H](O)C[C@H](O)CC[C@@H](C)C[C@H](C)C[C@@H](C)CO)[C@@H](O)c1cc(O)cc(O)c1`, the MIC in the experiment on Staphylococcus aureus [1] and with Staphylococcus aureus [2] was > 256 µg/mL each time. The inhibition in experiment [3] is 31.1%.

Regarding `CC(C)C[C@H]([C@H](O)CCNCc1ccco1)[C@@H](O)c1cc(O)cc(O)c1`, the MIC in the experiment on Staphylococcus aureus [1] and in the experiment with Staphylococcus aureus [2] was > 256 µg/mL in each case. This molecule also came in with an inhibition in experiment [3] of 34.5%.

For the molecule `CC(C)C[C@H]([C@H](O)CCO)[C@@H](O)c1cc(O)cc(O)c1`, the MIC with Staphylococcus aureus [1] and in the experiment with Staphylococcus aureus [2] was > 256 µg/mL throughout. In experiment [3], this molecule came in with an inhibition of 28.3%.

The molecule `CCC(O)[C@H](C)C[C@H](C)C[C@H](C)CC[C@@H](O)C[C@@H](O)[C@@H](CC(C)C)[C@@H](O)c1cc(O)cc(O)c1` (some centres not stated) showed an IC50 in experiment [4] of 17.1 µM. Also, the MIC in the experiment on Staphylococcus aureus [1] and in the experiment with Staphylococcus aureus [2] was 32 µg/mL (≈ 66.3 µM) throughout. In addition, the inhibition in experiment [3] was found to be 58.7%.

Regarding `CC(C)C[C@H]([C@H](O)CCNc1ccccc1O)[C@@H](O)c1cc(O)cc(O)c1`, the MIC with Staphylococcus aureus [1] and in the experiment with Staphylococcus aureus [2] was 64 µg/mL (≈ 170 µM) throughout. Further, the inhibition in experiment [3] was determined as 4.87%.

As for `CC(C)C[C@@H]([C@@H](O)C[C@H](O)CC[C@@H](C)C[C@H](C)C[C@@H](C)CO)[C@@H](O)c1cc(O)cc(O)c1`, the IC50 in experiment [4] worked out at 28.5 µM. In addition, the MIC in the experiment with Staphylococcus aureus [1] and in the experiment on Staphylococcus aureus [2] was > 256 µg/mL each time. The inhibition in experiment [3] is 59.1%.

For `CC(C)C[C@H]([C@H](O)CCNc1ccc(Cl)cc1Cl)[C@@H](O)c1cc(O)cc(O)c1`, the MIC in the experiment with Staphylococcus aureus [1] was 8 µg/mL (≈ 18.7 µM); in the experiment with Staphylococcus aureus [2] it was 4 µg/mL (≈ 9.34 µM). In experiment [3], this molecule returned an inhibition of 41.8%.

In the case of `CC(C)C[C@H]([C@H](O)CCNc1ccc(O)cc1)[C@@H](O)c1cc(O)cc(O)c1`, the figures for the MIC in the experiment on Staphylococcus aureus [1] and in the experiment with Staphylococcus aureus [2] were 64 µg/mL (≈ 170 µM) and > 256 µg/mL, respectively. In experiment [3], this molecule gave an inhibition of 8.18%.

On to `CCC(=O)[C@@H](C)C[C@@H](C)C[C@@H](C)CCCC[C@@H](O)[C@@H](CC(C)C)[C@@H](O)c1cc(O)cc(O)c1`, for which, in experiment [4], the IC50 came out at 16.4 µM. Besides, the MIC in the experiment on Staphylococcus aureus [1] was found to be 8 µg/mL (≈ 17.2 µM); in the experiment on Staphylococcus aureus [2], 4 µg/mL (≈ 8.61 µM). Also, the inhibition in experiment [3] is 81.5%.

As to `C[C@@H](COCc1ccccc1)C[C@H](C)C[C@H](C)C#CC(O)CC(O)C[C@@H](O)c1cc(O)cc(O)c1` (single isomer, unassigned), the MIC in the experiment with Staphylococcus aureus [1] and with Staphylococcus aureus [2] was 64 µg/mL (≈ 132 µM) in each case. Moreover, the inhibition in experiment [3] worked out at 33.6%.

`C=CC[C@@H](O)[C@@H](CC(C)C)[C@@H](O)c1cc(O)cc(O)c1`: half-maximal inhibition in experiment [4] (IC50) required 8.2 µM. Moreover, the MIC in the experiment on Staphylococcus aureus [1] and in the experiment with Staphylococcus aureus [2] was > 256 µg/mL throughout. Further, the inhibition in experiment [3] stood at 96.8%.

In experiment [4], `CC(C)C[C@@H]([C@H](O)C[C@H](O)C#CCCCCCCOCc1ccccc1)[C@@H](O)c1cc(O)cc(O)c1` yielded an IC50 of 7.16 µM. The MIC with Staphylococcus aureus [1] and with Staphylococcus aureus [2] was 128 µg/mL (≈ 257 µM) each time. In experiment [3], this molecule registered an inhibition of 97.1%.

Regarding `Cc1ccc([N+](=O)[O-])cc1NCC[C@@H](O)[C@@H](CC(C)C)[C@@H](O)c1cc(O)cc(O)c1`, the MIC in the experiment on Staphylococcus aureus [1] turned out to be 32 µg/mL (≈ 76.5 µM); in the experiment with Staphylococcus aureus [2], 64 µg/mL (≈ 153 µM). The molecule further yielded an inhibition in experiment [3] of 32%.

For the molecule `C[C@@H](CO)C[C@H](C)C[C@H](C)C#CC(O)CC(O)C[C@@H](O)c1cc(O)cc(O)c1` (single isomer, unassigned), the MIC with Staphylococcus aureus [1] and with Staphylococcus aureus [2] was 128 µg/mL (≈ 324 µM) each time. This molecule also had an inhibition in experiment [3] of 6.92%.

On to `C=CC[C@@H](O)[C@H](CC(C)C)[C@@H](O)c1cc(O)cc(O)c1`, for which the MIC with Staphylococcus aureus [1] and with Staphylococcus aureus [2] was > 256 µg/mL each time. The molecule also yielded an inhibition in experiment [3] of 39.5%.
